Laboratory results reported in patent US12594296B2, “Methods for treatment or prevention of damage resulting from radiation, trauma or shock” (priority 2012, dated 2026).
“Also recorded” adds a separate entry of the source. Like-named read-outs stand apart in the source and are kept apart here. Bridge positions count the residues as written; N and C are the ends. Square brackets hold non-standard residues; d marks the D form. Peptide text beside a SMILES is read from it. * marks the point of attachment. Ileψ(thiazoline)Cys = CC[C@H](C)[C@H](N)C1=N[C@H](C(=O)*)CS1; dOrn = NCCC[C@@H](N)C(=O)O

Key:
Clostridium perfringens = format: in vivo, chicks
[1] = test system: mice exposed to ionizing radiation; assay: Total body irradiation study: survival and body weight (Example 1); format: in vivo; details: for Percent Dead Per Group: 50 mg/kg p.o. q.d. + 200 ppm in drinking water Days 1-18
Method: Male mice were exposed to an acute irradiation dose on Day 0 of 0, 12.5, or 13.0 Gy at a rate of 1 Gy/min with lead shielding to the left hind limb. Starting 24 hours after irradiation, the mice were untreated or treated with PAAG or vehicle control, given with 50 mg/kg via oral gavage daily and dosed ad libitum in the drinking water (200 ppm PAAG) from days 1 to 18. The treatment groups are summarized on TABLE 1.
The total body irradiation study was performed as described above with control vehicle or PAAG (86 kDa and 30% functionalization) administered to the mice at the indicated final concentrations. […] As shown in the Kaplan-Meier Survival Plot in FIG. 1, there was no mortality in animals that were not irradiated. […] In fact, 88% of the treated animals survived while only 19% of the untreated animals survived. […] The comparative mortality data from these experiments is tabulated on TABLE 2.

[2] = test system: irradiated left buccal cheek pouch (oral mucositis); assay: Mucosal radiation dose ranging study, oral mucositis (Example 2); format: in vivo, Syrian Golden hamsters; details: 40 Gy to cheek pouch; 50, 100, 250 and 500 μg/mL t.i.d. into the pouch
Method: In a dose ranging study, an acute dose of irradiation of 40 Gy directed to the left buccal cheek pouch of Syrian Golden hamsters and the hamsters were treated t.i.d. with 50, 100, 250 and 500 μg/mL PAAG or vehicle control directly inserted into the pouch. Mean % weight change and mucositis score were recorded. The mucosal radiation dose ranging study was performed as described above with PAAG (86 kDa and 30% functionalization) added to the indicated final concentrations. […] A comparison of the mean percent weight gain for […] dosed with vehicle control and four dosing concentrations of PAAG is shown in FIG. 4. […] The healing effect of PAAG is shown in FIG. 6, which depicts the comparison of the percentage of animals with a mucositis score of 3 or higher on a given day post irradiation for a vehicle control and three doses of PAAG.

[3] = test system: irradiated left buccal cheek pouch (oral mucositis); assay: Oral mucositis scheduling study (Example 3); format: in vivo, hamsters; details: 200 ppm thrice daily Day -1 to 14 or Day 10 to 36, relative to Day -7 to 36 or Day -1 to 36
Method: In a scheduling study, an acute dose of irradiation of 40 Gy directed to the left buccal cheek pouch and the hamsters were treated t.i.d. with 200 μg/mL PAAG or vehicle control directly inserted into the pouch. Schedules included PAAG treatment Day—7 to 36, Day—1 to 36, Day—1 to 14, and Day 10-36. Mean % weight change and mucositis score were recorded. Oral mucositis scheduling study was performed as described above with PAAG (86 kDa and 30% functionalization) added to the indicated final concentrations. The mean mucositis scores for a vehicle control and 200 ppm PAAG administered thrice daily from Day—7 to 36, Day—1 to 36, Day—1 to 14, or Day 10 to 36 is shown in FIG. 7. […] dosed with 200 ppm PAAG administered thrice daily from Day—1 to 14 or from Day 10 to 36 have a reduced mean mucositis score relative to mice dosed with 200 ppm PAAG thrice daily from Day—7 to 36 or from Day—1 to 36.

[4] = test system: IL-8 production in U937 cells; assay: IL-8 production response in LPS-stimulated U937 cells (IL-8 ELISA); format: cell-based, human; details: 1 h pretreatment, rinsed, LPS 10 ng/ml 4 h; relative to control or lactoferrin pretreatment
[5] = test system: MRSA strain MW2 (ATCC BAA-1707); assay: Nasal epithelium/MRSA binding assay (RPMI-2650 cells); format: cell-based; details: pretreatment 200 or 500 ppm for 5 and 60 minutes; compared to PBS and media controls
Acinetobacter baumaunii = assay: Caco2 attachment of Acinetobacter baumannii; format: cell-based; details: pretreatment 200 μg/mL 1 h; relative to untreated cells
Method: Caco2 Attachment. The gut epithelium cell line (Caco2) were grown in Eagle's Minimal Essential Media (EMEM) supplemented with 10% (v/v) fetal bovine serum and 2 mm L-glutamine. Caco2 cells were seeded at 2.5×10^5 per well in 24 well plates and incubated at 37° C. and in atmosphere of 5% CO2 for 24 hours to confluency. The cells were then rinsed twice with D-PBS and replaced with (EMEM) without fetal bovine serum for another 24 hours. Cells were rinsed with D-PBS twice and replaced with media containing no fetal bovine serum. Pretreatment of the cells with PAAG 200 ug/ml (86 kDa, 30% functionalization; 37 kDa, 22% functionalization; and 27 kDa, 21% functionalization) dissolved in media without serum for one hour was performed and the cells were then rinsed twice with D-PBS to remove any non-adherent PAAG. After rinsing, the cells were inoculated with Acinetobacter baumaunii in growth phase at a multiplicity of infection (MOI) of 1:100 for one hour. Cells were then rinsed twice with D-PBS before being lysed using 0.5% Triton X-100 in D-PBS. Supernatants were extracted and serially diluted, plated and counted for bacterial attachment.
(§1) Pretreatment and binding studies were performed as described above for Caco2 cells with Acinetobacter attachment and Burkholderia cepacia macrophage uptake studies, with the PAAG (86 kDa and 30% functionalization) added to the indicated final concentrations.

Burkholderia cepacia = Burkholderia cepacia macrophage uptake (U937); format: cell-based; details: pretreatment of U937 with 200 μg/mL; relative to untreated cells
Method: Burkholderia cepacia macrophage uptake. The myeloid cell line (U937) were grown in RPMI 1640 supplemented with 10% (v/v) fetal bovine serum and 2 mm L-glutamine. Cells were seeded at 6×10^5 cells per well in 24 well plates in RPMI 1640 additionally supplemented with 0.1 ug PMA for 48 hours to activate U937 cells to be macrophage-like. Cell media was replaced with cell media without fetal bovine serum and PMA for at least 2 hours. Treatments consisted of either PAAG (200 ug/ml) treated on cells for one hour and being rinsed with D-PBS twice before inoculation or with PAAG treatment with no rinse. Upon completion of pretreatment with PAAG, cells were inoculated with Burkholderia cepacia in growth phase with an MOI of 1:10 for 45 min. After inoculation period media is supplemented with 50 ug/ml of gentamicin for another 45 min. Cells were then rinsed twice with D-PBS before being lysed using 0.5% Triton X-100 in D-PBS and serially diluted, plated and counted for bacterial uptake.
as §1

[6] = test system: mice exposed to ionizing radiation; assay: Survival after three doses of total body radiation (Example 11); format: in vivo, CB57BL/6 mice; details: for mortality, vehicle versus PAAG: 50 mg/kg once a day oral gavage
Method: Male CB57BL/6 mice of the same weight and age were subjected to radiation doses of 12.5, 13.5 and 14.0 Gy. Animals were given the same dose of PAAG (50 mg/kg once a day) by oral gavage as in the previous study. Eighteen (18) animals were studied in each of […]: irradiated control and active PAAG at each dose. Mortality data is shown in FIG. 30 for three doses of total body radiation treated with vehicle or PAAG given via oral gavage daily.

[7] = test system: small intestine of irradiated C57BL/6 mice
[8] = Irradiation biomarkers in plasma (pro-calcitonin, citrulline) (Example 10)
[9] = test system: bacteria in the mesenteric lymph nodes; assay: Intestinal bacterial translocation: bacterial count in mesenteric lymph nodes (Example 9); details: irradiated animals, 13 Gy; FIG. 16
A431 epidermal cells = assay: Scratch healing of confluent A431 epidermal cell monolayer; format: cell-based; details: serum free DMEM; 24, 48, 72 or 96 hours
Method: A431 epidermal cells were seeded into 4-well chamber slides in DMEM plus 10% FBS at a density to be confluent the next day (5×10^5/well (˜1.8 cm^2)). The following day, a scratch was made across the confluent monolayer using a sterile 10 μl tip. The medium was aspirated and the wells rinsed with DMEM to remove floating debris. Serum free DMEM was added to all wells, plus or minus PAAG (18 kD, 25% functionalization) or EGF as a positive control. Cells were treated for 24, 48, 72 or 96 hours. Cells were fixed with paraformaldehyde at the indicated times and stained with hematoxylin for better visualization. A representative scratch at time 0 is duplicated at the top of each column of treatments for comparison depicted in FIG. 13.

[10] = 13 Gy, day 4, quantitative histology, FIG. 19

## poly (acetyl, arginyl) glucosamine [PAAG (22 kD, 36% functionalization)]
Clostridium perfringens; in vivo
  mortality relative to control: reduced mortality with statistical significance; also recorded: reduced morality with statistical significance
  treated animals died: 15%

## CC[C@H](C)[C@H](N)C1=N[C@H](C(=O)N[C@@H](CC(C)C)C(=O)N[C@H](CCC(=O)O)C(=O)N[C@H](C(=O)N[C@H]2CCCCNC(=O)[C@H](CC(N)=O)NC(=O)[C@@H](CC(=O)O)NC(=O)[C@H](Cc3cnc[nH]3)NC(=O)[C@@H](Cc3ccccc3)NC(=O)[C@H]([C@@H](C)CC)NC(=O)[C@@H](CCCN)NC2=O)[C@@H](C)CC)CS1 [Bacitracin, reference compound] ({Ileψ(thiazoline)Cys}-L[dE]IK[dOrn]I[dF]H[dD]N; lactam 4-C)
Clostridium perfringens; ad libitum in water, PAAG at 100 ppm
  mortality relative to control: reduced mortality with statistical significance; also recorded: reduced morality with statistical significance

## poly (acetyl, arginyl) glucosamine [PAAG]
[1]; 12.5Gy of radiation, p=0.081
  survival difference between treated and untreated groups: No statistical difference
[1]; 12.5 Gy, n=16
  Percent Dead Per Group: 31.25%
[1]; 12.5 Gy, Day 5, euthanized, n=16
  No. of Death: 1
[1]; 12.5 Gy, Day 6, euthanized, n=16
  No. of Death: 1
[1]; 12.5 Gy, Day 7, euthanized, n=16
  No. of Death: 3
[1]; 13.0 Gy, based on n=15
  Percent Dead Per Group: 13.33^¶ Percent
[1]; 13.0 Gy, Day 6, found dead, n=15
  No. of Death: 1
[1]; 13.0 Gy, Day 18, euthanized, n=15
  No. of Death: 1
[1]; LD 80 dose (13.0 Gy), p<0.0001
  survival difference vehicle versus PAAG: very significant
[1]; LD 80 dose of radiation (13.0 Gy), untreated 19%
  treated animals survived: 88%
[1]; compared with untreated animals, FIG. 2
  mean percent weight change: no significant effect
[1]; no radiation, n=5
  Percent Dead Per Group: 0%
  No. of Death: 0
[2]
  course of oral mucositis: modulated the course of oral mucositis
[3]
  mean mucositis score: reduced
[4]
  LPS activated IL-8 response: reduced
[5]
  binding of MRSA to nasal epithelial cells: decreases
Acinetobacter baumaunii
  percentage of bacteria bound to Caco2 cells: decreases
Burkholderia cepacia
  percentage of bacterial invasion by Burkholderia cepacia: decreases
[6]; 12.5 Gy
  mortality, vehicle versus PAAG: numerically significant
[6]; 13.5 Gy
  mortality, vehicle versus PAAG: not statistically different
[6]; 14.0 Gy
  mortality, vehicle versus PAAG: not statistically different
[6]; after LD70 ionizing radiation
  mortality: reduced
[6]; any dose
  adverse effects: No adverse effects
[7]; 13 Gy, day 2, 50 mg/kg PO
  crypt degeneration: mild to moderate
  villi height, structure and epithelium: retained their normal height and structure
[7]; 13 Gy, day 3, 50 mg/kg PO
  crypt regeneration: mild to moderate
  villi blunting: minimally blunted
[7]; 13 Gy, day 4, 50 mg/kg PO
  crypt loss: moderate to marked
  crypt regeneration: moderate to marked
[7]; 13 Gy, day 4, compared with vehicle group 3
  loss of villous epithelium: not as severe as in group 3 animals
[7]; [10]
  GI inflammation relative to control: reduced
  crypt loss relative to control: reduced
  epithelial loss relative to control: reduced
[7]; 13 Gy, days 2-4
  crypt degeneration versus vehicle-treated mice: less severe
  inflammation versus vehicle-treated mice: reduced
  protection from the gastrointestinal effects of total body irradiation: partially protected
[7]; mouse, in vivo, po, 50 mg/kg
  small intestine histology: essentially normal
[8]; 13 Gy
  citrulline reduction versus untreated irradiated animals: statistically less
[8]; 13 Gy, oral gavage once a day
  circulating plasma levels of PCT relative to controls: reduced
[8]; day 3 and 4 after lethal ionizing radiation
  circulating amounts of citrulline relative to control: increased
[9]
  bacteria in the MLN (CFU/g) versus vehicle control group: dramatically less

## EGF: EGF as a positive control [reference compound]
A431 epidermal cells
  healing of scratches: faster than control

## poly (acetyl, arginyl) glucosamine [PAAG (18 kD, 25% functionalization)]
A431 epidermal cells
  healing of scratches: faster than control
